From patent publication US20080176810A1, “Use of 3, 4', 5-Trihydroxy-Stilbene-3-Beta-D-glucoside in Prepartion of Medicines For Treating and/or Preventing Ischemic Heart Disease” (SHENZHEN NEPTUNUS PHARMACEUTICAL CO., LTD., priority 2004, published 2008)
Where “and” joins values, the source holds several entries; their conditions need not be identical. Equal entries are not always repeated. Entries after “also recorded” stand apart in the source; their conditions may differ.

What was measured:
[1] = tested on: ischemic reperfusion injury of myocardium; assay: Ischemic reperfusion injury of myocardium in rats, iv; type: in vivo, SD rats; settings: for CK / LDH: serum
Experimental: Administration was performed by femoral intravenous injection.
(1) Method of operation and ligation of coronary artery: Male SD rats were anesthetized with pentobarbital sodium (45 mg/kg) and immobilized on their backs for records of II lead ECG with an electrocardiograph (ECG-6851C, manufactured by Shanghai Photoelectrical Medical Electronic Apparatus Co., Ltd.). Tracheas were intubated and connected to a breathing apparatus. Thoracotomy was performed at intercostal space on left chest for cutting down fourth/fifth rib and opening cardiac pericardium to expose the heart. A 0/3 suture line was passed underneath the left branch of anterior descending coronary artery. After 10 minutes of stabilization (those with abnormal ECG after stabilization were abandoned). With two thrums passing through a small piece of fine silicone tube, a ligature was made on another small piece of fine silicone tube for ischemic ligation (those with no changes in ST segment and T-wave were excluded). After 10 minutes of ligation, drugs were injected slowly through femoral veins. 40 minutes later, the lines for ligation were cut off to reperfuse the anterior descending branch for 30 minutes.
(2) Detection of lactate dehydrogenase (LDH) and creatine kinase (CK): After completion of reperfusion, blood was sampled from abdominal aorta to determine serum activity of LDH and CK with ultraviolet spectrometry.
(3) Measurement of the area of myocardial infarction: With same thickness, 5 slices of ventricular myocardium were cut off from the part under the line of coronary ligation and in parallel to atrioventricular furrow and put into staining solution of nitroblue tetrazolium (N-BT) for 15 min of shaking dyeing. Normal myocardium would be dyed to lasureous color, while the infarct part of myocardium would not be dyed and remain pale-yellow. Under a microscopy, the infarct part was separated and weighed, and the percentage (%) of the weight of infarct part to the weight of total myocardium was adopted as the index for area of myocardial infarction.
(4) Data and statistic treatment: Data in all groups were presented with x±s and analysis of variance was adopted to check their significance.

[2] = tested on: chronic myocardial ischemia; assay: Chronic myocardial ischemia in rats, intragastric administration; type: in vivo, SD rats; settings: TSG 20 mg/kg intragastric, 6 weeks
Experimental: (1) Operation and Coronary artery ligation of Animal: 60 male SD rats, divided into two groups: 15 in sham operation group and 45 in operation group, were immobilized on their backs by anesthesia of urethane ip at the dose of 100 mg/kg. Electrocardiograph (ECG-6851C, made by Shanghai Photoelectrical & Electronic Medical Apparatus Co., Ltd.) was used to record II lead electrocardiogram. Tracheal intubation was performed and connected into an artificial respirator and thoracotomy was performed at the fourth intercostal space of left sternal border after the skin sterilization. With exposure of the heart, the ligation was conducted at 3-4 mm of the root of left anterior descending coronary artery. ECG was monitored during the whole process and the graph showing significant elevation and depression of ST segment as well as the elevated T-wave amplitude was viewed as the indexes for the success of coronary artery ligation. After the ligation, thorax was closed and the air was drawn out. Regular feeding was continued after the operation, and the intramuscular injection of Penicillin was performed to prevent infection in 1 week after the operation. Thoracotomy was performed in sham operation group without coronary artery ligation.
(2) Groups and administration: 5 weeks later, there were 11 rats survived in sham operation group, and 24 rats in operation group. […] Starting from the sixth week, drugs were administered 6 days per week, and continued for 6 weeks, but withdrawn on Sundays. The volume of the drug administered was 5 ml/kg.
(1) Evaluation of therapeutic effect: Therapeutic effect was evaluated at the 12th week after the operation. 30 min after the final administration, rats were immobilized on their backs and tracheal intubation was performed. Arteria Femoralis was separated or insertion of a catheter to record artery blood pressure. A cardiac catheter was inversely guided into left ventricular from right common carotid artery. Both catheters were connected with pressure sensor, and then the pressure signals were input into an electrophysiolograph Powerlab system 8s (ML785/8S, AD Instruments, made in Australia) after being amplified with carriers. Needle electrodes were subcutaneously inserted into four limbs to monitor the standard two lead ECG. A computer (chart4.12 software, ML785/8S, AD Instruments, made in Australia) was used to monitor and store data. Thirty min after the operation, heart rate (HR), blood pressure (BPm), left ventricular systolic pressure (LVSP), left ventricular diastolic pressure (LVDP), the maximal rate of left intraventricular pressure changes (+dp/dtmax), left ventricular end-diastolic pressure (LVEDP), ECG were observed. One hour later, animals were executed, and their left ventriculars were taken out. The left hearts were cut into slices of 5 mm in thickness, which were cleaned with normal saline and put into 0.025% nitroblue tetrazolium (N-BT, made by Swiss Fluka Chemistry Company) at 37° C. for staining. Normal myocardium was dyed into dark blue, and the myocardium in infarction area was not dyed, remaining still light-yellow. The infarction area was isolated from normal myocardium under an anatomic microscopy and the both weighed, separatively. The percentage (%) of the weight of infarct area to the weight of the whole was regarded as the index for measurement of the area of myocardial infarction.
Test results was expressed in x±s. […]

[3] = Pharmacokinetics of single-dose iv in Beagle dogs; settings: for maximum plasma drug concentration: dogs;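 for all read-outs here: plasma levels in healthy adult Beagle dogs, five per dose group, after slow forelimb iv injection over 5 min, parameters from non-compartmental statistical moment analysis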
Experimental: Pharmacokinetical studies were carried out in three groups at the doses of 10 mg/Kg, 20 mg/Kg and 30 mg/Kg. Five healthy adult Beagle dogs were chosen into each dose group. […] The intravenous injection was performed in one forelimb of each tested dog within 5 min in a very slow manner. Three hours after the intravenous injection, the dogs could be fed. 3 ml of venous blood was sampled in heparinized tubes from another forelimb of each tested dog before and 0, 5, 10, 20, 40, 60, 90, 120, 180, 240, 300, 360 and 480 min after administration. Blood samples were centrifuged to obtain 1 ml of plasma.
Non compartmental modeling method (statistical moment) was applied in the data analysis. Estimating formula of corresponding parameters is as follows:
AUC0˜τ=Σ(Ci+Ci−1)×(ti−ti−1)/2
AUC0˜∞=Σ(Ci+Ci−1)×(ti−ti−1)/2+Cn/λ
AUMC0˜∞=Σ(Citi+Ci−1ti−1)×(ti−ti−1)/2+Cn(1/λ^2+tn/λ)
Where, in the formula, λ indicates the number of terminal eliminating rate of the concentration-time curve. tn and Cn represent the latest time of blood-sampling and plasma drug concentration, respectively. Pharmacokinetical parameters such as tmax and Cmax take the corresponding measuring value of plasma samples.
These pharmacokinetic parameters are obtained with non compartmental modeling method.

[4] = Beagle dogs, single dose iv, 10 mg/Kg, non compartmental
[5] = Beagle dogs, single dose iv, 20 mg/Kg, non compartmental
[6] = Beagle dogs, single dose iv, 30 mg/Kg, non compartmental

3,4′,5-trihydroxy-stilbene-3-β-D-glucoside [TSG]
Infarct area percentage ([1]; high dose 30.0 mg/kg iv): 23.71 ± 3.66 % | CK ([1]; high dose 30.0 mg/kg iv): 559.4 ± 72.9 IU/L | LDH ([1]; high dose 30.0 mg/kg iv): 744.0 ± 149.2 IU/L | Infarct area percentage ([1]; low dose 7.5 mg/kg iv): 27.57 ± 5.33 % | CK ([1]; low dose 7.5 mg/kg iv): 710.7 ± 106.8 IU/L | LDH ([1]; low dose 7.5 mg/kg iv): 857.7 ± 124.0 IU/L | Infarct area percentage ([1]; middle dose 15.0 mg/kg iv): 24.80 ± 3.32 % | CK ([1]; middle dose 15.0 mg/kg iv): 630.6 ± 108.6 IU/L | LDH ([1]; middle dose 15.0 mg/kg iv): 809.4 ± 128.4 IU/L | +dp/dt max [2]: 1389 ± 142^Δ Kpa/s | BP [2]: 19.2 ± 1.8^Δ KPa | HR [2]: 354 ± 45^Δ p/min | LVEDP [2]: 0.82 ± 0.19^Δ KPa | LVSP [2]: 19.8 ± 2.1^Δ KPa | AUC0~∞ ([3]; 10 mg/kg iv): 315.42 ± 60.82 µg·min/mL and 315 µg·min/mL | terminal elimination half life (t1/2) ([3]; 10 mg/kg iv): 167.87 ± 170.90 min and 168 min | AUC0~∞ ([3]; 20 mg/kg iv): 745.75 ± 175.84 µg·min/mL and 745 µg·min/mL | terminal elimination half life (t1/2) ([3]; 20 mg/kg iv): 151.05 ± 57.32 min and 152 min | AUC0~∞ ([3]; 30 mg/kg iv): 1552.71 ± 227.28 µg·min/mL and 1552 µg·min/mL | terminal elimination half life (t1/2) ([3]; 30 mg/kg iv): 373.09 ± 372.98 min and 373 min | maximum plasma drug concentration ([3]; 30 mg/kg iv): 100 µg/mL | maximum plasma drug concentration ([3]; 30 mg/kg iv, listed as 3,4′,5-trihydroxy-stilbene-3-β-D-glucoside): about 100 μg/ml; also recorded: approximately 0.25 mM | AUC0~480 [3, 4]: 283.05 ± 49.85 µg·min/mL | AUC0~∞ [3, 4]: 315.42 ± 60.82 µg·min/mL | CI [3, 4]: 0.03 ± 0.01 L/min | MRT [3, 4]: 140.06 ± 124.87 min | Vss [3, 4]: 4.21 ± 3.06 L | t1/2 [3, 4]: 167.87 ± 170.90 min | AUC0~480 [3, 5]: 718.32 ± 179.10 µg·min/mL | AUC0~∞ [3, 5]: 745.75 ± 175.84 µg·min/mL | CI [3, 5]: 0.03 ± 0.01 L/min | MRT [3, 5]: 78.08 ± 12.24 min | Vss [3, 5]: 2.24 ± 0.78 L | t1/2 [3, 5]: 151.05 ± 57.32 min | AUC0~480 [3, 6]: 1432.17 ± 349.97 µg·min/mL | AUC0~∞ [3, 6]: 1552.71 ± 227.28 µg·min/mL | CI [3, 6]: 0.02 ± 0.00 L/min | MRT [3, 6]: 184.08 ± 240.08 min | Vss [3, 6]: 4.25 ± 6.35 L | t1/2 [3, 6]: 373.09 ± 372.98 min
